Patent US20040197338A1, “Respiratory syncytial virus” (priority 2001, published 2004)

Test: Peptide solubility
Assay type: physicochemical
Details: for solubility on resuspension: resuspended at 1 mg/ml, other peptides in water

Row | Structure (SMILES) | solubility in water / PBS | solubility on resuspension
1 | CC[C@H](C)[C@H](NC(=O)[C@H](CCC(N)=O)NC(=O)[C@@H](NC(=O)[C@H](CCC(=O)O)NC(=O)[C@@H](NC(=O)[C@@H](NC(=O)[C@H](CC(C)C)NC(=O)[C@H](CO)NC(=O)[C@H](C)NC(=O)[C@H](CC(C)C)NC(=O)[C@@H](NC(=O)[C@H](CC(C)C)NC(=O)[C@@H](NC(=O)[C@H](CCC(=O)O)NC(=O)[C@H](Cc1ccccc1)NC(=O)[C@H](CCCCN)NC(=O)[C@H](CCSC)NC(=O)[C@H](CCC(=O)O)NC(=O)[C@H](CCCCN)NC(=O)CN)C(C)C)[C@@H](C)O)[C@@H](C)O)[C@@H](C)O)[C@@H](C)CC)C(=O)O [N8] | solubility problems in water | required 10% (v/v) acetic acid for solubility
2 | CC[C@H](C)[C@H](NC(=O)CN)C(=O)N[C@@H](Cc1ccccc1)C(=O)N[C@@H](C)C(=O)NCC(=O)N[C@@H](CC(C)C)C(=O)N[C@@H](Cc1ccccc1)C(=O)N[C@@H](CCSC)C(=O)N[C@@H](CC(N)=O)C(=O)N[C@@H](C)C(=O)N[C@@H](Cc1ccc(O)cc1)C(=O)NCC(=O)N[C@@H](C)C(=O)NCC(=O)N[C@@H](CCC(N)=O)C(=O)N[C@H](C(=O)N[C@@H](CCSC)C(=O)N[C@@H](CC(C)C)C(=O)N[C@@H](CCCNC(=N)N)C(=O)N[C@@H](Cc1c[nH]c2ccccc12)C(=O)O)C(C)C [N17] | solubility problems in water | required 10% (v/v) acetic acid for solubility
3 | CC[C@H](C)[C@H](NC(=O)[C@H](CC(C)C)NC(=O)CNC(=O)[C@@H](NC(=O)[C@H](Cc1ccccc1)NC(=O)[C@H](CCCCN)NC(=O)[C@H](Cc1c[nH]cn1)NC(=O)[C@H](CC(N)=O)NC(=O)[C@H](C)NC(=O)[C@H](CC(=O)O)NC(=O)[C@H](CCC(=O)O)NC(=O)[C@@H](NC(=O)[C@@H](NC(=O)[C@H](CC(C)C)NC(=O)[C@H](CC(C)C)NC(=O)[C@H](CCSC)NC(=O)CNC(=O)[C@H](CS)NC(=O)[C@H](CC(C)C)NC(=O)[C@@H](N)CCCCN)[C@@H](C)CC)[C@@H](C)O)[C@@H](C)O)C(=O)O [peptide N4] | soluble in PBS | –
